Data reported in patent US6166038A, “Aminopyrazole derivatives” (Banyu Pharmaceutical Co., Ltd., priority 1996, dated 2000).

Target: T1, human NPY Y5 receptor (Homo sapiens, UniProt Q15761)
T1 construct: expressed in transfected cells; host or cells: COS-7, CHO and LM(tk-)
T1 sequence (Q15761 1-445): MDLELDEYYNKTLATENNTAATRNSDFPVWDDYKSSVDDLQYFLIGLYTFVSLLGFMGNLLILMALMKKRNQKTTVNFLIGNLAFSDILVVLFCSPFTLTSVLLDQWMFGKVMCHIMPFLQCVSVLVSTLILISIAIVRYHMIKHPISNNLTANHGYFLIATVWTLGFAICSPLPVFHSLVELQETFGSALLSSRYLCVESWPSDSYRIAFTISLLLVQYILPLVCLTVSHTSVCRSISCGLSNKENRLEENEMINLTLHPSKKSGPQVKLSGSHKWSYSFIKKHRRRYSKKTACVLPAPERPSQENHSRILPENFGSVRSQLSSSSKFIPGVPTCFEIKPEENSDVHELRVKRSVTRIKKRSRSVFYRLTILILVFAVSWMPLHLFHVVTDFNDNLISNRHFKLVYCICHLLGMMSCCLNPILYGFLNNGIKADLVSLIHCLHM
Experiment: test of inhibition of NPY binding ([125I] peptide YY binding to membranes of NPY Y5 receptor-expressing cells)
Conditions: [125I] peptide YY, 20,000 cpm, 25° C., 2 hours, pH 7.4; membranes of transfected cells; read-out: IC50 value (inhibition of specific binding of peptide YY)
From the text: cDNA Sequence encoding a human NPY Y5 receptor [International Publication Wo 96/16542] was cloned into expression vectors pcDNA3, pRc/RSV (manufactured by Invitrogen) and pCI-neo (manufactured by Promega). Using the cationic lipid method [see Proceedings of the National Academy of Science of the United States of America, vol.84, p.7413 (1987)], host cells COS-7, CHO and LM(tk-) (American Type Culture Collection) were transfected with the thus prepared expression vectors to obtain cells in which the NPY Y5 receptor had been expressed.
Each of the membrane preparations thus prepared from the cells in which the NPY Y5 receptor had been expressed was incubated together with each compound to be tested and 20,000 cpm of [^125 I] peptide YY (manufactured by Amersham) at 25° C. for 2 hours in an assay buffer solution (25 mM HEPES buffer, pH 7.4, containing 10 mM magnesium chloride, 1 mM phenylmethylsulfonyl fluoride and 0.1% bacitracin) and then, the reaction mixture was filtered through a glass filter GF/C. After washing with 50 mM Tris buffer, pH 7.4, containing 0.3% BSA, radioactivity on the glass filter was measured using a gamma counter. […]

IC50: 39 nM
SMILES: COc1ccc(-c2cc(NC(=O)C3CCN(c4cccc(Cl)c4)CC3)n[nH]2)cc1 [Example 4, 3-[1-(3-chlorophenyl)piperidin-4-yl]carbonylamino-5-(4-methoxyphenyl)pyrazole]
